According to patent US20250145585A1, “HETEROCYCLIC INHIBITORS OF IGF-1R FOR TREATMENT OF DISEASE” (HORIZON THERAPEUTICS IRELAND DAC, priority 2023, published 2025):

Target: T1, IGF-1R (Homo sapiens, UniProt P08069)
T1 construct: expressed in transfected cells
Test: Example B-2: IGF-1R Assay (PathHunter cell lines, EC80 agonist challenge, chemiluminescent detection)
Assay type: cell-based
Settings: PathHunter cells, compound 60 minutes at 37° C., EC80 agonist 3 hours; read-out: IC50, Biological Activity against IGF-1R (Table B2)
Procedure, shortened: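 Read-out is PathHunter chemiluminescence, developed for 1 h at room temperature after a 3 h room-temperature EC80 agonist challenge that followed 60 min compound pre-treatment at 37° C (1% vehicle). IC50 comes from % inhibition normalized to EC80 and vehicle controls.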

T1 sequence (P08069 31-1367): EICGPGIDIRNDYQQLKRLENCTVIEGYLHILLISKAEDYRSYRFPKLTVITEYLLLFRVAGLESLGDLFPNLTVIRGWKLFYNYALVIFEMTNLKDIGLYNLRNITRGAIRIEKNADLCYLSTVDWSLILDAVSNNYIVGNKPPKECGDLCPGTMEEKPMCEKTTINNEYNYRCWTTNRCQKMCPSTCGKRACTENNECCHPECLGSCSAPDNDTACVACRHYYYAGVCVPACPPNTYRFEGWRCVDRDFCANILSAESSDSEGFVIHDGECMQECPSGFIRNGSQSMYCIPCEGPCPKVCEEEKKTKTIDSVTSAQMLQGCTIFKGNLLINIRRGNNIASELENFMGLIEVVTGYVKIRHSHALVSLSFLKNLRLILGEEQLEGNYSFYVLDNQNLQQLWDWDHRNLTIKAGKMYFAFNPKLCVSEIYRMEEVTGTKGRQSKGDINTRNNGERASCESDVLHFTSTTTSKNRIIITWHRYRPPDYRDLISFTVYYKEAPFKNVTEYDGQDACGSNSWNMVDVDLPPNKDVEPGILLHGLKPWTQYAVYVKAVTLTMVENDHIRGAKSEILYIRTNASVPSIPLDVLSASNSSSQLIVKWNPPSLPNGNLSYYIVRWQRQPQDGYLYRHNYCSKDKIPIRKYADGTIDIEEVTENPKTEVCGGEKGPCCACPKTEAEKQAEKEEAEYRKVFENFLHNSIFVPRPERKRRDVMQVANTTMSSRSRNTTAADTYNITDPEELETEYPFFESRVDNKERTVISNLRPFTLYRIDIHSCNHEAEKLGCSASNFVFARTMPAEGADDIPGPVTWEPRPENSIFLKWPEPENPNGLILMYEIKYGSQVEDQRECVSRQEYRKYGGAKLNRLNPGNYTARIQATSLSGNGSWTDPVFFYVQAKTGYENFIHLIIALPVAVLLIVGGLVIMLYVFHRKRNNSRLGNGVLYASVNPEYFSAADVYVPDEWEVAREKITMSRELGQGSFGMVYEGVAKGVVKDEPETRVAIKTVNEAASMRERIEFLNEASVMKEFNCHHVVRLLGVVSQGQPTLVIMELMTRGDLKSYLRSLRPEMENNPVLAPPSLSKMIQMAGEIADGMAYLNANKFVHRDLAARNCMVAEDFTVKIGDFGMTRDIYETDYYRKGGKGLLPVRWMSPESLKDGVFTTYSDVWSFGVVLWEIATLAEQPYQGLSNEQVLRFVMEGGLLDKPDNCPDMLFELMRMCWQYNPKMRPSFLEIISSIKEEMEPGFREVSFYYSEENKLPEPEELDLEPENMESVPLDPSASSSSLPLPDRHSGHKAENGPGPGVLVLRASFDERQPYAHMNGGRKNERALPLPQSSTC

| Compound | IC50 |
| --- | --- |
| CC(C)(C)Cn1ccc(N2C(=O)N(Cc3ccnc4c3CC(=O)N4)C(C)(C)C2=O)cc1=O [Compound 79, 5,5-dimethyl-3-(1-neopentyl-2-oxo-1,2-dihydropyridin-4-yl)-1-((2-oxo-2,3-dihydro-1H-pyrrolo[2,3-b]pyridin-4-yl)methyl)imidazolidine-2,4-dione] | > 10000 nM |
| CC(C)Nc1cc(CN2C(=O)N(c3ccc4c(c3)N(S(C)(=O)=O)CC43CCC3)C(=O)C2(C)C)ccn1 [Compound 195, 1-((2-(isopropylamino)pyridin-4-yl)methyl)-5,5-dimethyl-3-(1′-(methylsulfonyl)spiro[cyclobutane-1,3′-indolin]-6′-yl)imidazolidine-2,4-dione] | ≤ 500 nM |
| CC1(C)CN(C(=O)C2CC2)c2cc(N3C(=O)N(Cc4ccnc(N[C@H]5CCOC5)c4)C(C)(C)C3=O)ccc21 [Compound 196, (S)-3-(1-(cyclopropanecarbonyl)-3,3-dimethylindolin-6-yl)-5,5-dimethyl-1-((2-((tetrahydrofuran-3-yl)amino)pyridin-4-yl)methyl)imidazolidine-2,4-dione] | ≤ 500 nM |
| CC1(C)C(=O)N(c2ccc(C3(C(F)(F)F)CC3)cc2)C(=O)N1Cc1ccnc2c1CS(=O)(=O)N2 [Compound 44, 1-((2,2-dioxido-1,3-dihydroisothiazolo[3,4-b]pyridin-4-yl)methyl)-5,5-dimethyl-3-(4-(1-(trifluoromethyl)cyclopropyl)phenyl) imidazolidine-2,4-dione] | > 10000 nM |
| C[C@@H]1CNc2nccc(CN3C(=O)N(c4ccc(C5(C(F)(F)F)CC5)cc4)C(=O)C3(C)C)c2O1 [Compound 27, (R)-5,5-dimethyl-1-((2-methyl-3,4-dihydro-2H-pyrido[3,2-b][1,4]oxazin-8-yl)methyl)-3-(4-(1-(trifluoromethyl)cyclopropyl)phenyl) imidazolidine-2,4-dione] | ≤ 500 nM |
| CC1(C)C(=O)N(c2ccc(C3(C#N)CC3)cc2)C(=O)N1Cc1ccnc2c1CC(=O)N2 [Compound 64, 1-(4-(4,4-dimethyl-2,5-dioxo-3-((2-oxo-2,3-dihydro-1H-pyrrolo[2,3-b]pyridin-4-yl)methyl)imidazolidin-1-yl)phenyl)cyclopropane-1-carbonitrile] | 500 to 2000 nM |
| Cn1cc(CNc2cc(CN3C(=O)N(c4ccc(C5(C(F)(F)F)CC5)cc4)C(=O)C3(C)C)ccn2)cn1 [Compound 169, 5,5-dimethyl-1-((2-(((1-methyl-1H-pyrazol-4-yl)methyl)amino)pyridin-4-yl)methyl)-3-(4-(1-(trifluoromethyl)cyclopropyl)phenyl) imidazolidine-2,4-dione] | ≤ 500 nM |
| CC1(C)C(=O)N(c2ccc(C3(C(F)(F)F)CC3)cc2)C(=O)N1Cc1ccnc(NCc2ncc[nH]2)c1 [Compound 173, 1-((2-(((1H-imidazol-2-yl)methyl)amino)pyridin-4-yl)methyl)-5,5-dimethyl-3-(4-(1-(trifluoromethyl)cyclopropyl)phenyl) imidazolidine-2,4-dione] | ≤ 500 nM |

Results, then the compound that gave them:

| IC50 | Compound |
| --- | --- |
| ≤ 500 nM | CN1CC(C)(C)c2ccc(N3C(=O)N(Cc4ccnc(N[C@H]5[C@@H]6COC[C@@H]65)c4)C(C)(C)C3=O)cc21 [Compound 218, 1-((2-(((1R,5S,6r)-3-oxabicyclo[3.1.0]hexan-6-yl)amino)pyridin-4-yl)methyl)-5,5-dimethyl-3-(1,3,3-trimethylindolin-6-yl)imidazolidine-2,4-dione] |
| ≤ 500 nM | CC1(Nc2cc(CN3C(=O)N(c4ccc(S(=O)(=O)C(F)(F)F)cc4)C(=O)C3(C)C)ccn2)CC1 [Compound 355, 5,5-dimethyl-1-((2-((1-methylcyclopropyl)amino)pyridin-4-yl)methyl)-3-(4-((trifluoromethyl)sulfonyl)phenyl)imidazolidine-2,4-dione] |
| 2000 to 10000 nM | Cn1nc(C(C)(C)C)cc1N1C(=O)N(Cc2ccnc(NC3CCOCC3)c2)C(C)(C)C1=O [Compound 260, 3-(3-(tert-butyl)-1-methyl-1H-pyrazol-5-yl)-5,5-dimethyl-1-((2-((tetrahydro-2H-pyran-4-yl)amino)pyridin-4-yl)methyl)imidazolidine-2,4-dione] |
| 2000 to 10000 nM | CC1(C)C(=O)N(c2ccc(OC(F)(F)F)c(F)c2)C(=O)N1Cc1ccnc2c1CC(=O)N2 [Compound 286, 3-(3-fluoro-4-(trifluoromethoxy)phenyl)-5,5-dimethyl-1-((2-oxo-2,3-dihydro-1H-pyrrolo[2,3-b]pyridin-4-yl)methyl)imidazolidine-2,4-dione] |
| ≤ 500 nM | COC[C@@H](C)Nc1cc(CN2C(=O)N(c3ccc4c(c3)N(S(C)(=O)=O)CC4(C)C)C(=O)C2(C)C)ccn1 [Compound 203, (R)-3-(3,3-dimethyl-1-(methylsulfonyl)indolin-6-yl)-1-((2-((1-methoxypropan-2-yl)amino)pyridin-4-yl)methyl)-5,5-dimethylimidazolidine-2,4-dione] |
| ≤ 500 nM | COC[C@@H](C)Nc1cc(CN2C(=O)N(c3ccc4c(c3)N(S(C)(=O)=O)CC43CC3)C(=O)C2(C)C)ccn1 [Compound 213, (R)-1-((2-((1-methoxypropan-2-yl)amino)pyridin-4-yl)methyl)-5,5-dimethyl-3-(1′-(methylsulfonyl)spiro[cyclopropane-1,3′-indolin]-6′-yl)imidazolidine-2,4-dione] |
| ≤ 500 nM | CC1(C)C(=O)N(c2ccc(S(=O)(=O)C(F)(F)F)cc2)C(=O)N1Cc1ccnc(N[C@H]2C[C@H]2F)c1 [Compound 357, 1-((2-(((1S,2R)-2-fluorocyclopropyl)amino)pyridin-4-yl)methyl)-5,5-dimethyl-3-(4-((trifluoromethyl)sulfonyl)phenyl)imidazolidine-2,4-dione] |
| 500 to 2000 nM | CC(C)Nc1cc(CN2C(=O)N(c3ccc(S(=O)(=O)C4CC4)cc3)C(=O)C2(C)C)ccn1 [Compound 353, 3-(4-(cyclopropylsulfonyl)phenyl)-1-((2-(isopropylamino)pyridin-4-yl)methyl)-5,5-dimethylimidazolidine-2,4-dione] |
| ≤ 500 nM | CC1(C)CN(S(C)(=O)=O)c2cc(N3C(=O)N(Cc4ccnc(NC5CCOCC5)c4)C(C)(C)C3=O)ccc21 [Compound 209, 3-(3,3-dimethyl-1-(methylsulfonyl)indolin-6-yl)-5,5-dimethyl-1-((2-((tetrahydro-2H-pyran-4-yl)amino)pyridin-4-yl)methyl)imidazolidine-2,4-dione] |
| 500 to 2000 nM | C[C@@H](Nc1cc(CN2C(=O)N(c3ccc(S(=O)(=O)C(F)(F)F)cc3)C(=O)C2(C)C)ccn1)[C@@H]1CCCO1 [Compound 341, 5,5-dimethyl-1-((2-(((R)-1-((S)-tetrahydrofuran-2-yl)ethyl)amino)pyridin-4-yl)methyl)-3-(4-((trifluoromethyl)sulfonyl)phenyl) imidazolidine-2,4-dione] |
| ≤ 500 nM | Cn1cc(CNc2cc(CN3C(=O)N(c4ccc(S(=O)(=O)C(F)(F)F)cc4)C(=O)C3(C)C)ccn2)cn1 [Compound 344, 5,5-dimethyl-1-((2-(((1-methyl-1H-pyrazol-4-yl)methyl)amino)pyridin-4-yl)methyl)-3-(4-((trifluoromethyl)sulfonyl)phenyl) imidazolidine-2,4-dione] |
| ≤ 500 nM | C[C@@H](CC#N)Nc1cc(CN2C(=O)N(c3ccc4c(c3)N(C)CC4(C)C)C(=O)C2(C)C)ccn1 [Compound 217, (S)-3-((4-((5,5-dimethyl-2,4-dioxo-3-(1,3,3-trimethylindolin-6-yl)imidazolidin-1-yl)methyl)pyridin-2-yl)amino)butanenitrile] |
